For one experiment, the system named is Male CD-1 mice. As to the kind of experiment: Oil of mustard induced colitis model. The format is in vivo. An excerpt:
In the distal colon, the oil of mustard colitis model is characterized by a discontinuous pattern of mucosal epithelial damage, submucosal edema, infiltration of inflammatory cells (including macrophages, neutrophils and lymphocytes) into the mucosa and submucosa, increased wet weight of the colon, shrinkage of the colon length, diarrhea and apparent inflammation (see, Kimball E. S., Palmer J. M., D'Andrea M. R., Homby P. J. and Wade P. R., Acute colitis induction by oil of mustard results in later development of an IBS-like accelerated upper GI transit in mice, Am. J Physiol. Gastrointest. Liver Physiol., 2005, 288: G 1266-1273).
Male CD-1 mice (Charles River Laboratories, Kingston, N.C.) (9-11 weeks old) and fresh oil of mustard (OM) (allyl isothiocyanate, 98% purity, Sigma-Aldrich St. Louis, Mo.) were used.
The mice (9 per treatment group) were briefly anesthetized with ketamine/xylasine (Sigma, St. Louis, Mo.) and a solution of 0.5% OM in 30% ethanol (50 μL) was administered intracolonically (to a depth of 4 cm) via syringe (equipped with a ball-tipped 22 G needle).
A test compound was orally administered one day prior to colitis induction for assessing a prophylactic regimen or one day post-induction for assessing a therapeutic regimen. A test compound was orally administered daily thereafter. Two days after OM administration, the last test compound dose was administered.
Three days after OM administration, the animals were sacrificed. The colons were resected, examined for signs of inflammation, weighed after removing fecal contents and the length from the aboral end of the cecum to the anus was measured. The fecal contents were examined for signs of diarrhea. The distal colon between the 1st and the 4th centimeter was removed and placed in 10% neutral buffered formalin for histological analysis.
The macroscopic observations of colon inflammation (a measure of colon damage), colon weight and length and stool consistency and appearance were assigned a score and used to evaluate colitis severity.
The four observation scores for each colon were combined, whereby a combined score of 0 represents a normal colon and a combined score of 15 represents a maximally affected colon. Statistical analyses were performed in Graphpad Prism 4.0 using ANOVA.
Histological analyses of tissues consisted of staining paraffin-embedded tissue sections with hematoxylin-eosin dye. The tissues were examined using light microscopy by an investigator who was blinded to the sample groups.
The microscopic observations of epithelial damage, cellular infiltration and damage or alteration of smooth muscle architecture (a measure of muscle damage) were assigned a score and used to evaluate colitis severity.
The scores for each colon were combined, whereby a combined score of 0 represents a normal colon and a combined score of 9 represents a maximally affected colon. Statistical analyses were performed in Graphpad Prism 4.0 using ANOVA.
The Macroscopic Score and Microscopic Score results for each treatment group in the prophylactic and therapeutic regimens were each combined into a mean score and expressed as % inhibition of colitis (% Inh). Test (#) represents the number of experiments at each dose level.

For experiment [1], the target named is T1, CB1 receptor (Homo sapiens, UniProt P21554).
T1 construct: expressed in transfected cells
T1 sequence (P21554 whole entry): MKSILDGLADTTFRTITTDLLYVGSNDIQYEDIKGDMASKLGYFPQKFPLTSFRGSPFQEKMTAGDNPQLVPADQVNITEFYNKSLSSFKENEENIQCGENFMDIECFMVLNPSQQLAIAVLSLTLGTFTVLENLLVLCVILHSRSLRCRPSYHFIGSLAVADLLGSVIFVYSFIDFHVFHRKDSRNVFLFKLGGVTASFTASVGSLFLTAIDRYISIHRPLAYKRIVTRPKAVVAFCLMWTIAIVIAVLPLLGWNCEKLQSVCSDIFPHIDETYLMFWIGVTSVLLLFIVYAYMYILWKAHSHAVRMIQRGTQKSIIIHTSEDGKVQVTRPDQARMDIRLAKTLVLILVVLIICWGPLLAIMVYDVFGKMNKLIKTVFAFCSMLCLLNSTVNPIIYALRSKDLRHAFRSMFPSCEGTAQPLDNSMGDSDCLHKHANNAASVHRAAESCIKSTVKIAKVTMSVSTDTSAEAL
As to the kind of experiment: Binding assay for CB1 agonists or inverse agonists (SK-N-MC membranes, [3H]-CP-55,940). Conditions: for inhibition at 1 µM: read-out: CB1 receptor binding percent inhibition, test concentration 1 μM (footnote 1); for IC50: Cannabinoid CB1 Receptor Binding IC50, calculated by linear regression from percent inhibition at various test concentrations. The gist of the method: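 Membranes from SK-N-MC cells stably expressing human CB1 incubated with compound and [3H]-CP-55,940 ([…]) for 90 min at 30° C in Tris-HCl pH 7.5, MgCl2, EDTA, fatty-acid-free BSA. Non-specific binding defined with 10 uM WIN 55,212; filtration, scintillation count; IC50 by linear regression.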

For experiment [2], the target named is T2, CB2 receptor (Homo sapiens, UniProt P34972).
T2 construct: expressed in transfected cells
T2 sequence (P34972 whole entry): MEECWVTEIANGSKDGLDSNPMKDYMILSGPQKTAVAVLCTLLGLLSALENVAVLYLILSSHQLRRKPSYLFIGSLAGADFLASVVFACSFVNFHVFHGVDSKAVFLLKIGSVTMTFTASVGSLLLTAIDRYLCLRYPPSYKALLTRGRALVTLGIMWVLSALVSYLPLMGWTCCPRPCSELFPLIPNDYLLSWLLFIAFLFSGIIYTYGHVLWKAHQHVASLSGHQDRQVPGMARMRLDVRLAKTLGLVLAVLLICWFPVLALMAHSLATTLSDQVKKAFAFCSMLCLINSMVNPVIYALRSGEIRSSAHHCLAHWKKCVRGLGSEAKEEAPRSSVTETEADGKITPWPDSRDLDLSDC
As to the kind of experiment: Binding assay for CB2 agonists or inverse agonists (SK-N-MC membranes, [3H]-CP-55,940). As to conditions: for inhibition at 0.2 µM: read-out: CB2 receptor binding percent inhibition, test concentration 0.2 μM (footnote 2); for IC50: Cannabinoid CB2 Receptor Binding IC50, calculated by linear regression from percent inhibition at various test concentrations. A digest of the protocol:
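Membranes from SK-N-MC cells stably expressing human CB2 were incubated with radioligand and test compounds for 90 min at 30 °C in Tris-HCl buffer, pH 7.5, with MgCl2, EDTA and fatty-acid-free BSA. Filter-bound radioactivity was counted; IC50 was derived by linear regression of percent inhibition.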

For experiment [3], the target named is T1, CB1 receptor. As to the kind of experiment: cell-based. Conditions: CB1 Receptor Functional Agonist EC50, SK-N-MC cells, forskolin induced β-galactosidase activity. The gist of the method: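 SK-N-MC cells stably co-expressing human CB1 and a CRE-β-galactosidase reporter; forskolin-induced β-gal activity measured after compound treatment, as % of vehicle-treated cells (100%). EC50 by linear regression from concentration series; otherwise % change at a single concentration.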

The target of experiment [4] is T2, CB2 receptor. As to the kind of experiment: Functional cell-based assay, CB2 receptor mediated change in CRE β-gal expression (SK-N-MC cells). Conditions: CB2 Receptor Functional Agonist EC50, forskolin induced β-galactosidase activity, SK-N-MC cells. An excerpt:
The CB1 and CB2 receptors are G-protein coupled receptors (GPCR), which influence cell function via the Gi-protein. These receptors modulate the activity of intracellular adenylate cyclase, which in turn produces the intracellular signal messenger cyclic-AMP (cAMP).
At baseline, or during non-ligand bound conditions, these receptors are constitutively active and tonically suppress adenylate cyclase activity. The binding of an agonist causes further receptor activation and produces additional suppression of adenylate cyclase activity. The binding of an inverse agonist inhibits the constitutive activity of the receptors and results in an increase in adenylate cyclase activity.
By monitoring intracellular adenylate cyclase activity, the ability of compounds to act as agonists or inverse agonists can be determined.
Test compounds were evaluated in SK-N-MC cells which, using standard transfection procedures, were stably transfected with human cDNA for pcDNA3-CRE β-gal and pcDNA3 CB1 receptor (human) or pcDNA3 CB2 receptor (human). By expressing CRE β-gal, the cells produced β-galactosidase in response to CRE promoter activation by cAMP. Cells expressing CRE β-gal and either the human CB1 or CB2 receptor will produce less β-galactosidase when treated with a CB1/CB2 agonist and will produce more β-galactosidase when treated with a CB1/CB2 inverse agonist.
The cells were grown in 96-well plates under standard cell culture conditions at 37° C. in a 5% CO2 atmosphere and culture media (wherein the media was supplemented with 2 mM L-glutamine, […] sodium pyruvate, 10% FBS (fetal bovine serum) and antibiotics).
For cells expressing CRE β-gal and the CB2 receptor, CB2 agonists reduced β-galactosidase activity in a dose-dependent manner and CB2 inverse agonists increase β-galactosidase activity in a dose-dependent manner.
The change in forskolin induced β-galactosidase activity was determined by setting a vehicle treated cell's activity value at 100% and expressing the β-galactosidase activity measured in a corresponding compound treated cell as a percent of the vehicle treated cell activity.
The EC50 value for functional activity for compounds tested was calculated by linear regression and was obtained from studies in which varying compound concentrations were used.

Where [5] appears, read: test concentration 0.2 μM (footnote 2), 0.2 µM.
[6] abbreviates: Prophylactic Regimen, 2.5 mg/kg oral.
[7] abbreviates: Prophylactic Regimen, 5 mg/kg oral.
Where [8] appears, read: Therapeutic Regimen, 5 mg/kg oral.
The mark [9] stands for this setting: read-out: CB1 receptor binding percent inhibition, test concentration 0.2 μM (footnote 2).

Like-named read-outs stand apart in the source and are kept apart here.

Consider `O=C(N[C@@H](CO)c1ccccc1)c1n[nH]c2c1CCCCC2Cc1cccc(Cl)c1` (stereo in doubt) [Cpd 228, (8S*)-8-(3-chloro-benzyl)-1,4,5,6,7,8-hexahydro-cycloheptapyrazole-3-carboxylic acid [(1R)-2-hydroxy-1-phenyl-ethyl]-amide], for which the “% Inh (Macro), % inhibition of colitis, macroscopic score” value (from here on “% Inh (Macro), % inhibition of colitis”) in the experiment with Male CD-1 mice (Therapeutic Regimen, 5 mg/kg oral, 5 mg/kg) is listed as 51.7 ± 13.2%. Also, at CB1 receptor [1] (setting [5]), the “CB1 receptor binding percent inhibition” value is “^(2)0%”. On CB2 receptor [2] (setting [5]), the “CB2 receptor binding percent inhibition” value is on record as “^(2)45%”.

On to `C[C@H](NS(=O)(=O)/C=C/c1n[nH]c2c1CCCCC2Cc1cccc(F)c1)c1ccccc1` (stereo partly drawn) [Cpd 96, (2E)-2-[8-(3-fluoro-benzyl)-1,4,5,6,7,8-hexahydro-cycloheptapyrazol-3-yl]-ethenesulfonic acid [(1S)-1-phenyl-ethyl]-amide], for which the “% Inh (Macro), % inhibition of colitis” value in the experiment with Male CD-1 mice (setting [6]) turned out to be 8.0 ± 16.7%; with Male CD-1 mice (setting [7]) it was 10.8 ± 13.4%; in the experiment on Male CD-1 mice (setting [8]), 7.6 ± 11.5%. Also, the inhibition at 1 µM stood at 0% at CB1 receptor [1] and 94% on CB2 receptor [2] (test concentration 1 μM (footnote 1), read-out: CB2 receptor binding percent inhibition). Also, on CB2 receptor [2] (test concentration 0.015 μM (footnote 7), read-out: CB2 receptor binding percent inhibition), the inhibition at 0.015 µM amounted to 50%. For the same compound, the “CB2 receptor binding percent inhibition” value at CB2 receptor [2] (test concentration not stated) is given as 72%.

Take `C[C@H](NS(=O)(=O)/C=C/c1n[nH]c2c1CCCCC2Cc1ccc(F)cc1)c1ccccc1` (stereo partly drawn) [Cpd 108, (2E)-2-[8-(4-fluoro-benzyl)-1,4,5,6,7,8-hexahydro-cycloheptapyrazol-3-yl]-ethenesulfonic acid [(1S)-1-phenyl-ethyl]-amide]: the “% Inh (Macro), % inhibition of colitis” value in the experiment on Male CD-1 mice (setting [6]) came to 51.2 ± 19.1%; in the experiment on Male CD-1 mice (setting [7]) it was 13.4 ± 13.3%. For the same compound, the inhibition at 0.5 µM at CB1 receptor [1] (read-out: CB1 receptor binding percent inhibition, test concentration 0.5 μM (footnote 10)) turned out to be 33%. In addition, the inhibition at 1 µM on CB1 receptor [1] was 55%. On CB1 receptor [1] (test concentration not stated), the “CB1 receptor binding percent inhibition” value was 44%. Besides, the “CB2 receptor binding percent inhibition” value at CB2 receptor [2] (test concentration not stated) is on record as 100%.

`C[C@H](NC(=O)c1nn(-c2cc(Cl)ccc2Cl)c2c1CCCC/C2=C\c1ccc(Cl)cc1)c1ccccc1` [Cpd 198, (8E)-8-(4-chloro-benzylidene)-1-(2,5-dichloro-phenyl)-1,4,5,6,7,8-hexahydro-cycloheptapyrazole-3-carboxylic acid [(1S)-1-phenyl-ethyl]-amide]: the “% Inh (Macro), % inhibition of colitis” value in the experiment on Male CD-1 mice (setting [8]) amounted to 41.0 ± 17%. A half-maximal effect at CB1 receptor [3] (EC50) was put at 20 nM. Besides, the 50% inhibitory concentration (IC50) (usually the point on the concentration scale where inhibition reaches its midpoint) at CB1 receptor [1] is 20 nM. For the same compound, the inhibition at 0.2 µM was 87% on CB1 receptor [1] (read-out: CB1 receptor binding percent inhibition) and 68% at CB2 receptor [2].

As for `COC(=O)[C@H](Cc1ccc(F)cc1)NC(=O)c1nn(C)c2c1CCCC/C2=C\c1cccc(F)c1` [Cpd 241, (8E)-(2S)-2-{[8-(3-fluoro-benzylidene)-1-methyl-1,4,5,6,7,8-hexahydro-cycloheptapyrazole-3-carbonyl]-amino}-3-(4-fluoro-phenyl)-propionic acid methyl ester], the values for the EC50 at CB1 receptor [3] and at CB2 receptor [4] were 2800 nM and 18 nM, respectively. The figures for the IC50 on CB1 receptor [1] and at CB2 receptor [2] were 200 nM and 100 nM, respectively. Further, the inhibition at 0.2 µM on CB1 receptor [1] (setting [9]) was determined as 33%; at CB2 receptor [2], 62%.

In the case of `Cn1nc(C(=O)N[C@@H](CO)c2ccccc2)c2c1/C(=C/c1cccc(F)c1)CCCC2` [Cpd 242, (8E)-8-(3-fluoro-benzylidene)-1-methyl-1,4,5,6,7,8-hexahydro-cycloheptapyrazole-3-carboxylic acid [(1R)-2-hydroxy-1-phenyl-ethyl]-amide], the EC50 (as a rule, the concentration that produces a half-maximal response) on CB1 receptor [3] came out at 30 nM; on CB2 receptor [4], 11 nM. The IC50 at CB1 receptor [1] was 20 nM; at CB2 receptor [2], 100 nM. Also, the inhibition at 0.2 µM on CB1 receptor [1] (setting [9]) stood at 80%; on CB2 receptor [2], 50%.

With `Cn1nc(C(=O)N[C@H](CO)Cc2ccc(O)cc2)c2c1/C(=C/c1cccc(F)c1)CCCC2` [Cpd 244, (8E)-(2S)-8-(3-fluoro-benzylidene)-1-methyl-1,4,5,6,7,8-hexahydro-cycloheptapyrazole-3-carboxylic acid [1-hydroxymethyl-2-(4-hydroxy-phenyl)-ethyl]-amide], the EC50 was found to be 600 nM at CB1 receptor [3] and 5 nM on CB2 receptor [4]. For the same compound, the results for the IC50 on CB1 receptor [1] and at CB2 receptor [2] were 100 nM and 20 nM, respectively. The inhibition at 0.2 µM amounted to 68% at CB1 receptor [1] (setting [9]) and 78% at CB2 receptor [2].

With `COC(=O)[C@@H](Cc1ccc(F)cc1)NC(=O)c1n[nH]c2c1CCCC/C2=C\c1cccc(Cl)c1` [Cpd 245, (8E)-(2R)-2-{[8-(3-chloro-benzylidene)-1,4,5,6,7,8-hexahydro-cycloheptapyrazole-3-carbonyl]-amino}-3-(4-fluoro-phenyl)-propionic acid methyl ester], the EC50 stood at 80 nM at CB1 receptor [3] and 1 nM at CB2 receptor [4]. In addition, the results for the IC50 on CB1 receptor [1] and on CB2 receptor [2] were 6 nM and 2 nM, respectively. In addition, the inhibition at 0.2 µM worked out at 68% on CB1 receptor [1] (setting [9]) and 93% at CB2 receptor [2].

Regarding `COC(=O)[C@@H](Cc1ccc(F)cc1)NC(=O)c1n[nH]c2c1CCCC/C2=C\c1ccc(Cl)cc1` [Cpd 247, (8E)-(2R)-2-{[8-(4-chloro-benzylidene)-1,4,5,6,7,8-hexahydro-cycloheptapyrazole-3-carbonyl]-amino}-3-(4-fluoro-phenyl)-propionic acid methyl ester], the EC50 on CB1 receptor [3] is 8 nM; at CB2 receptor [4] it was 4 nM. Further, the IC50 is 2 nM at CB1 receptor [1] and 1 nM on CB2 receptor [2]. For the same compound, the inhibition at 0.2 µM turned out to be 91% at CB1 receptor [1] (setting [9]) and 96% at CB2 receptor [2].

(Values after patent US8378117B2 (priority 2005, dated 2013).)
